Patent publication US6500222B2, “Diureides and their use” (priority 1999, dated 2002)

Tests used:
[1] = tested on: mustard seedlings (Sinapis alba, 'Maxi'); test: Mustard seedling test on plant tolerance, growth and yield
ryegrass = test: Crop production experiment in Mitscherlich containers with ryegrass as test crop; details: 2.4 g of N per container
[2] = N fertilization 100 mg/container, DAT 13
[3] = N fertilization 100 mg/container, DAT 23
[4] = N fertilization 200 mg/container, DAT 13
[5] = N fertilization 200 mg/container, DAT 23
[6] = N fertilization 400 mg/container, DAT 13
[7] = N fertilization 400 mg/container, DAT 23

Substance | "Greenness" (%) (N supply) 100% = dark green [1, 2] | "Greenness" (%) (N supply) 100% = dark green [1, 3] | FW yield [1, 3] [g/container] | N content in the DM (%) [1, 3] [%] | N uptake in the shoot [1, 3] [mg/container] | "Greenness" (%) (N supply) 100% = dark green [1, 4] | "Greenness" (%) (N supply) 100% = dark green [1, 5] | FW yield [1, 5] [g/container] | Dry-matter production (ryegrass; day 16 post-fertilization) [g/container] | Nitrogen uptake (ryegrass; day 16 post-fertilization) [mg/container] | Dry-matter production (ryegrass; day 30 post-fertilization) [g/container] | Nitrogen uptake (ryegrass; day 30 post-fertilization) [mg/container] | Dry-matter production (ryegrass; day 45 post-fertilization) [g/container] | Nitrogen uptake (ryegrass; day 45 post-fertilization) [mg/container] | Dry-matter production (ryegrass; day 58 post-fertilization) [g/container] | Nitrogen uptake (ryegrass; day 58 post-fertilization) [mg/container] | Dry-matter production (ryegrass; day 78 post-fertilization) [g/container] | Nitrogen uptake (ryegrass; day 78 post-fertilization) [mg/container] | Dry-matter production (ryegrass; day 125 post-fertilization) [g/container] | Nitrogen uptake (ryegrass; day 125 post-fertilization) [mg/container] | further results
Urea [reference compound] | 100 | 100 | 19.6 | 4.3 | 84 | 100 | 100 | 1.6 | 7.7 | 480 | 5.6 | 311 | 8.6 | 404 | 8.6 | 410 | 5.9 | 127 | 1.4 | 33 | N content in the DM (%) [1, 5]: 6.5%; N uptake in the shoot [1, 5]: 10 mg/container; Dry-matter production (ryegrass; day 100 post-fertilization): 2.3 g/container; Nitrogen uptake (ryegrass; day 100 post-fertilization): 50 mg/container; Dry-matter production (ryegrass; day 174 post-fertilization): 1.4 g/container; Nitrogen uptake (ryegrass; day 174 post-fertilization): 27 mg/container
bis(N′-potassium sulfamate)malonic acid diureide [IaB] | 70 | 30 | 7.1 | 3.1 | 46 | 80 | 85 | 4.7 |  |  |  |  |  |  |  |  |  |  |  |  | N content in the DM (%) [1, 5]: 5.3%; N uptake in the shoot [1, 5]: 80 mg/container; "Greenness" (%) (N supply) 100% = dark green [1, 6]: 85%; "Greenness" (%) (N supply) 100% = dark green [1, 7]: 85%; FW yield [1, 7]: 3.7 g/container; N content in the DM (%) [1, 7]: 6.6%; N uptake in the shoot [1, 7]: 90 mg/container
bis(N′-potassium sulfamate)succinic diureide [IaA] | 30 | 30 | 10.4 | 1.5 | 27 | 30 | 30 | 10.4 |  |  |  |  |  |  |  |  |  |  |  |  | N content in the DM (%) [1, 5]: 1.7%; N uptake in the shoot [1, 5]: 28 mg/container; "Greenness" (%) (N supply) 100% = dark green [1, 6]: 30%; "Greenness" (%) (N supply) 100% = dark green [1, 7]: 30%; FW yield [1, 7]: 10.6 g/container; N content in the DM (%) [1, 7]: 1.9%; N uptake in the shoot [1, 7]: 29 mg/container
fumaric acid diureide [Compound 1C] |  |  |  |  |  |  |  |  | 4.2 | 112 | 1.9 | 60 | 2.1 | 69 | 3.4 | 108 | 3.3 | 104 | 5.1 | 138 | 
malonic acid diureide [Compound 1A] |  |  |  |  |  |  |  |  | 5.7 | 185 | 2.5 | 97 | 3.8 | 130 | 3.1 | 119 | 5.4 | 180 | 9.3 | 283 | Dry-matter production (ryegrass; day 100 post-fertilization): 6.3 g/container; Nitrogen uptake (ryegrass; day 100 post-fertilization): 204 mg/container; Dry-matter production (ryegrass; day 174 post-fertilization): 7.2 g/container; Nitrogen uptake (ryegrass; day 174 post-fertilization): 154 mg/container; Dry-matter production (ryegrass; day 252 post-fertilization): 4.5 g/container; Nitrogen uptake (ryegrass; day 252 post-fertilization): 145 mg/container
succinic acid diureide [Compound 1B] |  |  |  |  |  |  |  |  | 4 | 114 | 1.7 | 50 | 1.3 | 36 | 2.2 | 69 | 4.6 | 161 | 9.6 | 281 | 
